Laboratory results as given in patent US20230141101A1, “PDE4 INHIBITOR COMPOUND AND MEDICAL USE THEREOF” (Suzhou Longbotai Pharmaceuticals Co., Ltd., priority 2020, published 2023).

Legend:
Assay type in all cases: biochemical
[1] = target: T1, PDE4A1A (Homo sapiens, UniProt P27815); assay: PDE4 inhibitory activity assay (FAM-cAMP enzymatic reaction), PDE4A1A
T1 construct: purchased BPS 60040
Method in brief: (§1)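 Human PDE4A1A, PDE4B1 or PDE4D2 preincubated with compound 15 min at room temperature, then FAM-cAMP substrate added; reaction 30 min at room temperature before stop solution and further 60 min. Fluorescence read on multilabel counter; IC50 fitted from inhibition rates.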

[2] = target: T2, PDE4B1 (Homo sapiens, UniProt Q07343); assay: PDE4 inhibitory activity assay (FAM-cAMP enzymatic reaction), PDE4B1
T2 construct: purchased BPS 60041
Method in brief: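 Each isoform is incubated with test compound for 15 min at room temperature before FAM-cAMP substrate starts a 30-min reaction.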

[3] = target: PDE4D2 (Homo sapiens, UniProt Q08499); assay: PDE4 inhibitory activity assay (FAM-cAMP enzymatic reaction), PDE4D2
Method in brief: as §1

[4] = compared with Apremilast and Example 11 of WO2018036470 (WX011)

Sequence of PDE4D2 (Q08499 303-809): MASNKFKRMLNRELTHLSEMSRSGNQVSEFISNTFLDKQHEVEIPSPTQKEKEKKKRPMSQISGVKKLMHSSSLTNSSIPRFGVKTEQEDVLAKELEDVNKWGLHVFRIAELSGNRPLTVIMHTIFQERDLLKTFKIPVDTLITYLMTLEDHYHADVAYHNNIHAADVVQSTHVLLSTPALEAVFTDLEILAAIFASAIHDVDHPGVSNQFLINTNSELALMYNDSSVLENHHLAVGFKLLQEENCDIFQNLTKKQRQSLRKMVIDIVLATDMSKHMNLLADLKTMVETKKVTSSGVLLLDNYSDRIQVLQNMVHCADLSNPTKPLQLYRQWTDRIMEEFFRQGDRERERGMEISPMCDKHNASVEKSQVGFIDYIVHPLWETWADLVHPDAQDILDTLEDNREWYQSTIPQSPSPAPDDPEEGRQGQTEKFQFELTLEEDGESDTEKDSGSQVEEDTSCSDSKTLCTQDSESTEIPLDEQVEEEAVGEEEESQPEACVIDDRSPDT
T1 sequence (P27815 1-647 isoform P27815-4): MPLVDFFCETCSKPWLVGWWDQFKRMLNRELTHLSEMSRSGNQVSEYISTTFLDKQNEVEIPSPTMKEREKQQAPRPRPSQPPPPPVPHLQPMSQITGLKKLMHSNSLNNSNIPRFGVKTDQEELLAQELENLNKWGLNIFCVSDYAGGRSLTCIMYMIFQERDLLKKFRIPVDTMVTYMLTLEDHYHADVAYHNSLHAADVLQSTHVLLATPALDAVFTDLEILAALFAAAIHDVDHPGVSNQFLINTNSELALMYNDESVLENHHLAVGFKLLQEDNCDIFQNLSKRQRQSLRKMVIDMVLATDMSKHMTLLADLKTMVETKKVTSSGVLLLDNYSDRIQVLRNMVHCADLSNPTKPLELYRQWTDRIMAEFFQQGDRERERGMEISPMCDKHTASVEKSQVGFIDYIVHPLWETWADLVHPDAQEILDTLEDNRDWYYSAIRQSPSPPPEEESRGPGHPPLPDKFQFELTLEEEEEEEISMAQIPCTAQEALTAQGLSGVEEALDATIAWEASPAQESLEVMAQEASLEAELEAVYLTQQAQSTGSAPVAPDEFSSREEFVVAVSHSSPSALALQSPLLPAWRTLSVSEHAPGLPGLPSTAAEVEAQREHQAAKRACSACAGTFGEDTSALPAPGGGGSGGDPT
T2 sequence (Q07343 whole entry): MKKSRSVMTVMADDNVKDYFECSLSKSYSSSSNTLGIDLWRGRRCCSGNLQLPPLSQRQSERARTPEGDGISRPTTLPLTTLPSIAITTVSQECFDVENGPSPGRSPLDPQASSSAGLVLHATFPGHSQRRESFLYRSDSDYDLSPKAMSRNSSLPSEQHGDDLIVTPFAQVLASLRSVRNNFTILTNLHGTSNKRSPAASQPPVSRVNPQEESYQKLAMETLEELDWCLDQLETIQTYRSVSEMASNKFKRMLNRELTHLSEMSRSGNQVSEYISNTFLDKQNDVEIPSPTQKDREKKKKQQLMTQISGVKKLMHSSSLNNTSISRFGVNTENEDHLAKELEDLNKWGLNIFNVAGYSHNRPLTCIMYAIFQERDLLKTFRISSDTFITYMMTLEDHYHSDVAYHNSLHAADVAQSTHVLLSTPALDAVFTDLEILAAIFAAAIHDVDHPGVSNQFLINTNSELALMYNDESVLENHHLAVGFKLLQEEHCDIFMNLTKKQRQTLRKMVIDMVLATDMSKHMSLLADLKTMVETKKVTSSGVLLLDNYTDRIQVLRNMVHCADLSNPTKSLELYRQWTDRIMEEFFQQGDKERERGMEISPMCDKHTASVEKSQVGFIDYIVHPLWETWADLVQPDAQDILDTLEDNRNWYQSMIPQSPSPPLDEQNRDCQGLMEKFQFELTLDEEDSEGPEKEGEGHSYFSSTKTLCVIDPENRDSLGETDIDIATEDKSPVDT

| Structure (SMILES) | PDE4 A1 inhibitory effect at 20 nM [1] | PDE4 B1 inhibitory effect at 20 nM [2] | PDE4 D2 inhibitory effect at 20 nM [3] | inhibitory activity against PDE4A1A compared with Apremilast and WX011 [1, 4] | inhibitory activity against PDE4B1 compared with Apremilast and WX011 [2, 4] | inhibitory activity against PDE4D2 compared with Apremilast and WX011 [3, 4] | IC50 ([3]; read-out: PDE4 D2 inhibitory activity (IC50 value)) |
| --- | --- | --- | --- | --- | --- | --- | --- |
| CCOc1nc([C@H](CS(C)(=O)=O)N2Cc3cccc(NC(C)=O)c3C2=O)ccc1OC [Ex. 216, (R)—N-(2-(1-(6-ethoxy-5-methoxypyridin-2-yl)-2-(methylsulfonyl)ethyl)-3-oxoisoindolin-4-yl)acetamide] | + | + | + | – | – | – | – |
| CCOc1nc([C@@H](CS(C)(=O)=O)n2c(=O)[nH]c3cc(-c4cccc(F)c4F)cnc32)ccc1OC [Ex. 90, (S)-6-(2,3-difluorophenyl)-3-(1-(6-ethoxy-5-methoxypyridin-2-yl)-2-(methylsulfonyl)ethyl)-1H-imidazo[4,5-b]pyridin-2(3H)-one] | + | + | + | – | – | – | – |
| CCOc1nc([C@@H](CS(C)(=O)=O)n2c(=O)n(C)c3cc(-c4cccc(C)c4C)cnc32)ccc1OC [Ex. 104, (S)-6-(2,3-dimethylphenyl)-3-(1-(6-ethoxy-5-methoxypyridin-2-yl)-2-(methylsulfonyl)ethyl)-1-methyl-1H-imidazo[4,5-b]pyridin-2(3H)-one] | + | + | + | – | – | – | – |
| CCOc1nc([C@@H](CS(C)(=O)=O)n2c(=O)n(C)c3cc(-c4cc(F)ccc4F)cnc32)ccc1OC [Ex. 93, (S)-6-(2,5-difluorophenyl)-3-(1-(6-ethoxy-5-methoxypyridin-2-yl)-2-(methylsulfonyl)ethyl)-1-methyl-1H-imidazo[4,5-b]pyridin-2(3H)-one] | + | + | + | – | – | – | – |
| CCOc1nc([C@@H](CS(C)(=O)=O)n2c(=O)[nH]c3cc(-c4cc(F)ccc4C)cnc32)ccc1OC [Ex. 109, (S)-6-(5-fluoro-2-methylphenyl)-3-(1-(6-ethoxy-5-methoxypyridin-2-yl)-2-(methylsulfonyl)ethyl)-1H-imidazo[4,5-b]pyridin-2(3H)-one] | + | + | + | – | – | – | – |
| CCOc1nc([C@@H](CS(C)(=O)=O)n2c(=O)n(C)c3cc(-c4cc(F)c(F)cc4F)cnc32)ccc1OC [Ex. 97, (S)-6-(2,4,5-trifluorophenyl)-3-(1-(6-ethoxy-5-methoxypyridin-2-yl)-2-(methylsulfonyl)ethyl)-1-methyl-1H-imidazo[4,5-b]pyridin-2(3H)-one] | + | + | + | – | – | – | – |
| CCOc1nc([C@@H](CS(C)(=O)=O)n2c(=O)[nH]c3c(C)c(-c4ccccc4OC)cnc32)ccc1OC [Ex. 12, (S)-3-(1-(6-ethoxy-5-methoxypyridin-2-yl)-2-(methylsulfonyl)ethyl)-6-(2-methoxyphenyl)-7-methyl-1H-imidazo[4,5-b]pyridin-2(3H)-one] | – | – | – | significantly enhanced inhibitory activity | significantly enhanced inhibitory activity | significantly enhanced inhibitory activity | 3.2 nM |
| CCOc1nc([C@@H](CS(C)(=O)=O)n2c(=O)[nH]c3cc(-c4ccccc4OC)cnc32)ccc1OC [Ex. 83, (S)-3-(1-(6-ethoxy-5-methoxypyridin-2-yl)-2-(methylsulfonyl)ethyl)-6-(2-methoxyphenyl)-1H-imidazo[4,5-b]pyridin-2(3H)-one] | + | + | + | – | – | – | – |
| CCOc1nc([C@@H](CS(C)(=O)=O)n2c(=O)n(C)c3cc(-c4ccc(F)cc4F)cnc32)ccc1OC [Ex. 95, (S)-6-(2,4-difluorophenyl)-3-(1-(6-ethoxy-5-methoxypyridin-2-yl)-2-(methylsulfonyl)ethyl)-1-methyl-1H-imidazo[4,5-b]pyridin-2(3H)-one] | + | + | + | – | – | – | – |
| CCOc1nc(C(CS(C)(=O)=O)N2C(=O)c3csc(NC(C)=O)c3C2=O)ccc1OC (stereo not shown) [Ex. 224, N-(5-(1-(6-ethoxy-5-methoxypyridin-2-yl)-2-(methylsulfonyl)ethyl)-4,6-dioxo-5,6-dihydro-4H-thieno[3,4-c]pyrrol-1-yl)acetamide] | + | + | + | – | – | – | – |
| CCOc1nc([C@@H](CS(C)(=O)=O)n2c(=O)n(C)c3cc(-c4ccc(C)cc4F)ccc32)ccc1OC [Ex. 180, (S)-5-(2-fluoro-4-methylphenyl)-1-(1-(6-ethoxy-5-methoxypyridin-2-yl)-2-(methylsulfonyl)ethyl)-3-methyl-1H-benzo[d]imidazol-2(3H)-one] | + | + | + | – | – | – | – |
| CCOc1nc([C@H](CS(C)(=O)=O)n2c(=O)n(C)c3cc(-c4ccc(F)cc4)ccc32)ccc1OC [Ex. 138, (R)-1-(1-(6-ethoxy-5-methoxypyridin-2-yl)-2-(methylsulfonyl)ethyl)-3-methyl-5-(4-fluorophenyl)-1H-benzo[d]imidazol-2(3H)-one] | + | + | + | – | – | – | – |
| CCOc1nc([C@@H](CS(C)(=O)=O)n2c(=O)[nH]c3cc(-c4ccccc4C(F)(F)F)ccc32)ccc1OC [Ex. 146, (S)-1-(1-(6-ethoxy-5-methoxypyridin-2-yl)-2-(methylsulfonyl)ethyl)-5-(2-(trifluoromethyl)phenyl)-1H-benzo[d]imidazol-2(3H)-one] | + | + | + | – | – | – | – |
| CCOc1nc([C@@H](CS(C)(=O)=O)n2c(=O)[nH]c3c(C)c(-c4cc(C)ccc4F)cnc32)ccc1OC [Ex. 38, (S)-6-(2-fluoro-5-methylphenyl)-3-(1-(6-ethoxy-5-methoxypyridin-2-yl)-2-(methylsulfonyl)ethyl)-7-methyl-1H-imidazo[4,5-b]pyridin-2(3H)-one] | + | + | + | – | – | – | – |
| CCOc1nc([C@@H](CS(C)(=O)=O)n2c(=O)[nH]c3c(C)c(-c4c(F)cccc4F)cnc32)ccc1OC [Ex. 23, (S)-6-(2,6-difluorophenyl)-3-(1-(6-ethoxy-5-methoxypyridin-2-yl)-2-(methylsulfonyl)ethyl)-7-methyl-1H-imidazo[4,5-b]pyridin-2(3H)-one] | + | + | + | – | – | – | – |
| CCOc1nc([C@@H](CS(C)(=O)=O)n2c(=O)[nH]c3cc(-c4cc(C)ccc4C)cnc32)ccc1OC [Ex. 101, (S)-6-(2,5-dimethylphenyl)-3-(1-(6-ethoxy-5-methoxypyridin-2-yl)-2-(methylsulfonyl)ethyl)-1H-imidazo[4,5-b]pyridin-2(3H)-one] | + | + | + | – | – | – | – |
| CCOc1nc([C@@H](CS(C)(=O)=O)n2c(=O)[nH]c3cc(-c4ccccc4Cl)ccc32)ccc1OC [Ex. 142, (S)-5-(2-chlorophenyl)-1-(1-(6-ethoxy-5-methoxypyridin-2-yl)-2-(methylsulfonyl)ethyl)-1H-benzo[d]imidazol-2(3H)-one] | + | + | + | – | – | – | – |
| CCOc1nc([C@@H](CS(C)(=O)=O)n2c(=O)[nH]c3cc(-c4cc(F)c(F)cc4F)ccc32)ccc1OC [Ex. 158, (S)-5-(2,4,5-trifluorophenyl)-1-(1-(6-ethoxy-5-methoxypyridin-2-yl)-2-(methylsulfonyl)ethyl)-1H-benzo[d]imidazol-2(3H)-one] | + | + | + | – | – | – | – |
| CCOc1nc([C@@H](CS(C)(=O)=O)n2c(=O)[nH]c3c(C)c(-c4c(F)cccc4OC)cnc32)ccc1OC [Ex. 46, (S)-6-(6-fluoro-2-methoxyphenyl)-3-(1-(6-ethoxy-5-methoxypyridin-2-yl)-2-(methylsulfonyl)ethyl)-7-methyl-1H-imidazo[4,5-b]pyridin-2(3H)-one] | + | + | + | – | – | – | – |
| CCOc1nc([C@@H](CS(C)(=O)=O)n2c(=O)n(C)c3cc(-c4ccc(C)cc4F)cnc32)ccc1OC [Ex. 116, (S)-6-(2-fluoro-4-methylphenyl)-3-(1-(6-ethoxy-5-methoxypyridin-2-yl)-2-(methylsulfonyl)ethyl)-1-methyl-1H-imidazo[4,5-b]pyridin-2(3H)-one] | + | + | + | – | – | – | – |
| CCOc1nc([C@@H](CS(C)(=O)=O)n2c(=O)[nH]c3cc(-c4cccc(C)c4C)ccc32)ccc1OC [Ex. 166, (S)-5-(2,3-dimethylphenyl)-1-(1-(6-ethoxy-5-methoxypyridin-2-yl)-2-(methylsulfonyl)ethyl)-1H-benzo[d]imidazol-2(3H)-one] | + | + | + | – | – | – | – |
